Data as given in patent US12391724B2, “Polypodoside sweet flavor modifier” (Firmenich Incorporated, priority 2019, dated 2025).

Experiments:
T1R2/T1R3 receptor = biological target: T1, T1R2/T1R3 receptor (Homo sapiens, UniProt Q7RTX0+Q8TE23); experiment: activation of the T1R2/T1R3 receptor; type: cell-based
T1 sequence (Q8TE23 20-839): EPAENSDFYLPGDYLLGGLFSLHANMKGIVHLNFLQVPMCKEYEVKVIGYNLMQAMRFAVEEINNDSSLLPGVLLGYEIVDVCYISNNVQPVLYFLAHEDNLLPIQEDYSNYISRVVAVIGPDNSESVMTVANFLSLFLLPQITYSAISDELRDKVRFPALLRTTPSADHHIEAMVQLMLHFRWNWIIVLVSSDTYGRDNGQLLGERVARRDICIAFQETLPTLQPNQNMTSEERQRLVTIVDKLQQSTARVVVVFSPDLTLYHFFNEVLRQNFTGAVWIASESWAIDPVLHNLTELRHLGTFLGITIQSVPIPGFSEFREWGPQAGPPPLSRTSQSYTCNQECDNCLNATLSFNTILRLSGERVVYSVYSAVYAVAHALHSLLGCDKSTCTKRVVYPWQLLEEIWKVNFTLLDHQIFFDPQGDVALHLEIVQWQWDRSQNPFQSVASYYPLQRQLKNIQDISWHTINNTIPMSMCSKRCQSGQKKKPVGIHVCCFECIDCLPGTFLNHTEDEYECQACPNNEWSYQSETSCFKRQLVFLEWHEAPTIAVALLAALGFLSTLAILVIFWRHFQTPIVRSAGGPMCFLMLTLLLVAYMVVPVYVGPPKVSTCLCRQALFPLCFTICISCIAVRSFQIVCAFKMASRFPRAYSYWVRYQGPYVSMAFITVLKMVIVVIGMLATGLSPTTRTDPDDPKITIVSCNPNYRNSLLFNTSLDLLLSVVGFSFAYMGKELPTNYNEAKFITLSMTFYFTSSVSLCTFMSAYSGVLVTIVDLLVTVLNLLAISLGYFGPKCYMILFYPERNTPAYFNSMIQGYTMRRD
T1 sequence (Q7RTX0 21-852): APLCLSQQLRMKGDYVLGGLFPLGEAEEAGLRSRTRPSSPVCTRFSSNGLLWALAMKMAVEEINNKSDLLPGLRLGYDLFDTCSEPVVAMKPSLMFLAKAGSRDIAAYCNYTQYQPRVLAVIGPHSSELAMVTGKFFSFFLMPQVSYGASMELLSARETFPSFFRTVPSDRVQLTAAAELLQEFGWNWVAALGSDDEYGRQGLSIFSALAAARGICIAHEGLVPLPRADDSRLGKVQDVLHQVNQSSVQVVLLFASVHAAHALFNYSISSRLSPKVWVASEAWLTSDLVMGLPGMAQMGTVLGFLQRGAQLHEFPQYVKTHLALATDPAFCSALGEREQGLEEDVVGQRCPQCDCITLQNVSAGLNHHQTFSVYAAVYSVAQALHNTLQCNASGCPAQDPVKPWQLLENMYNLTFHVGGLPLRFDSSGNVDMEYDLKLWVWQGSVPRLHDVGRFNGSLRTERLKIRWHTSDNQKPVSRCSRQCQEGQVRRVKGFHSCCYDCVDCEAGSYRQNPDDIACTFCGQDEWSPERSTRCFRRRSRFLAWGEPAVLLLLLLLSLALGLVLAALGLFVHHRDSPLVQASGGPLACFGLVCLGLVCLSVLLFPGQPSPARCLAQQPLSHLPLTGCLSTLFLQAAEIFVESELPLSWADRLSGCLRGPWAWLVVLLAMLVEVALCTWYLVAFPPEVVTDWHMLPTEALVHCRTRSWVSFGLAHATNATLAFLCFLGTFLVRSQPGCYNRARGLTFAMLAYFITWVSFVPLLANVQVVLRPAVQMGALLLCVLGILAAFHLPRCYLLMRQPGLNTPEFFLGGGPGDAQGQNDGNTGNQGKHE
Excerpt: The present isolated compounds have been tested and shown sweet taste modifying activities.

[1] = test system: human panelists (sweetness); experiment: paired comparison (2-AFC) taste test for sweetness with human panelists; type: in vivo
Procedure: Test samples containing experimental compounds were presented in pairs to the human panelist and they were asked to determine which of the sample is sweeter. […] A group of 10-16 or more panelists participated in each test. Subjects refrained from eating or drinking (except water) for at least 1 hour prior to the test. Subjects rinsed with water several times to clean the mouth.
Taste tests were performed with sucrose or HFCS as the sweetener in the presence or absence of compound. A 0.2% stock solution of compound in water with sodium bicarbonate was prepared and then this stock solution was diluted in the final sample to achieve the targeted final concentration of compound. For the sample evaluated at pH 2.8 the pH of the solution is decreased to about pH 2.8 using citric acid. Taste samples were also prepared in a low sodium phosphate buffer (pH 7.1; “LSB”) lacking sucrose or HFCS to evaluate the taste of the compound alone. Low sodium phosphate buffer consists of 0.3 mM KCl, 0.5 mM Na2HPO4, and 0.175 mM KH2PO4. Sample volumes are usually 20 ml.
In one paired comparison test, the panelist was presented with two different samples and asked to identify the sample which is sweeter. The samples within a paired comparison test were presented in a randomized, counterbalanced order. Panelists had up to a 1 minute delay between taste tests to clear the mouth of any tastes.
Binomial probability tables were used to determine the probability of the correct number of responses occurring for each test at alpha=0.05
Paired comparison taste test for sweetness (0.25 mL sample size)

[2] = 4% sucrose vs 0% sucrose + 87 ppm compound, LSB pH 7.1, total 42
[3] = 4% sucrose vs 0% sucrose + 100 ppm compound, pH 7.1, total 36
[4] = 4% sucrose vs 0% sucrose + 125 ppm compound, pH 7.1, total 42
[5] = 4% sucrose vs 0% sucrose + 150 ppm compound, pH 7.1, total 36

## COCC(C1CCC(C)C(OC2OC(C)C(O)C(O)C2O)O1)C1CCC2C3=CC(=O)C4CC(OC5OC(CO)C(O)C(O)C5O)CCC4(C)C3CCC21C (centres unmarked) [Polypodoside E]
T1R2/T1R3 receptor
  EC50: 18.4 µM

## CC1CCC(C(C)C2CCC3C4=CC(=O)C5CC(OC6OC(CO)C(OC7OC(C)C(O)C(O)C7O)C(O)C6O)CCC5(C)C4CCC32C)OC1OC1OC(C)C(O)C(O)C1O (centres unmarked) [Polypodoside G]
T1R2/T1R3 receptor
  EC50: 18.7 µM

## Polypodoside D
T1R2/T1R3 receptor
  EC50: 4.15 µM
[1]; [2]
  Sample selected as sweeter by panelists: 0% Sucrose + Cmpd: 18
  Sample selected as sweeter by panelists: 4% Sucrose: 24
[1]; 4% sucrose vs LSB + 87 ppm compound, pH ~7.1
  sweetness of 4% Sucrose compared with the sample (in words): not significantly different in sweetness
[1]; compared with Rebaudioside A
  sweet taste and potency in sensory studies (in words): has a sweet taste and demonstrates higher potency than Rebaudioside A

## C=C1C[C@@]23CC[C@H]4[C@@](C)(CCC[C@@]4(C)C(=O)O[C@@H]4O[C@H](CO)[C@@H](O)[C@H](O)[C@H]4O)[C@@H]2CC[C@]1(O[C@@H]1O[C@H](CO)[C@@H](O)[C@H](O[C@@H]2O[C@H](CO)[C@@H](O)[C@H](O)[C@H]2O)[C@H]1O[C@@H]1O[C@H](CO)[C@@H](O)[C@H](O)[C@H]1O)C3 [Reb A, Rebaudioside A]
[1]; 2-AFC, pH 7.1
  concentration equivalent to 4% sucrose: 125 ppm Reb A is equivalent to 4% sucrose.
[1]; [3]
  Sample selected as sweeter by panelists: 0% Sucrose + Cmpd: 8
  Sample selected as sweeter by panelists: 4% Sucrose: 28
[1]; [4]
  Sample selected as sweeter by panelists: 0% Sucrose + Cmpd: 22
  Sample selected as sweeter by panelists: 4% Sucrose: 20
[1]; [5]
  Sample selected as sweeter by panelists: 0% Sucrose + Cmpd: 24
  Sample selected as sweeter by panelists: 4% Sucrose: 12
